Experimental data taken from US20240216413A1, “THIONUCLEOSIDES AS ANTIVIRAL AGENTS” (priority 2021, published 2024).
Like-named read-outs stand apart in the source and are kept apart here.

Key:
Format in all cases: cell-based
SARS-CoV-2 variant Delta = assay: microbe, parasite or virus in culture
SARS-CoV-2 variant Alpha [1] = assay: microbe, parasite or virus in culture; settings: for EC50: read-out: Antiviral Activity Against SARS-CoV-2 Variants in Vero EC50, Alpha; for EC90: read-out: Antiviral Activity Against SARS-CoV-2 Variants in Vero EC90, Alpha
[2] = tested on: SARS-CoV-2 Lineage A (Eng); assay: Antiviral activity against SARS-CoV-2 Lineage A (Eng) in Vero; settings: for EC50: read-out: Antiviral Activity Against SARS-CoV-2 Variants in Vero EC50, Lineage A (Eng); for EC90: read-out: Antiviral Activity Against SARS-CoV-2 Variants in Vero EC90, Lineage A (Eng)
SARS-CoV-2 variant Alpha [3] = assay: microbe, parasite or virus in culture
[4] = tested on: SARS-CoV-2 Lineage A (Wa); assay: Antiviral activity against SARS-CoV-2 Lineage A (Wa) in Vero; settings: read-out: Antiviral Activity Against SARS-CoV-2 Variants in Vero EC50, Lineage A (Wa)
[5] = tested on: SARS-CoV-2 Lineage A (Wa); assay: Antiviral activity against SARS-CoV-2 Lineage A (Wa) in Calu3
SARS-CoV-2 variant Beta [6] = assay: microbe, parasite or virus in culture; settings: Severe acute respiratory syndrome coronavirus 2, Calu-3, read-out: Antiviral Activity Against SARS-CoV-2 Variants in Calu3 EC50, Beta
[7] = tested on: SARS-CoV-2 Lineage A (Eng); assay: Antiviral activity against SARS-CoV-2 Lineage A (Eng) in Calu3
SARS-CoV-2 variant Gamma [8] = assay: microbe, parasite or virus in culture; settings: for EC50: read-out: Antiviral Activity Against SARS-CoV-2 Variants in Vero EC50, Gamma; for EC90: read-out: Antiviral Activity Against SARS-CoV-2 Variants in Vero EC90, Gamma
SARS-CoV-2 variant Gamma [9] = assay: microbe, parasite or virus in culture
SARS-CoV-2 variant Beta [10] = assay: microbe, parasite or virus in culture; settings: for EC50: read-out: Antiviral Activity Against SARS-CoV-2 Variants in Vero EC50, Beta; for EC90: read-out: Antiviral Activity Against SARS-CoV-2 Variants in Vero EC90, Beta
[11] = Severe acute respiratory syndrome coronavirus 2, Vero
[12] = Severe acute respiratory syndrome coronavirus 2, Alpha, Vero
[13] = Severe acute respiratory syndrome coronavirus 2, Lineage A (Eng), Vero
[14] = Severe acute respiratory syndrome coronavirus 2, Gamma, Vero
[15] = Severe acute respiratory syndrome coronavirus 2, Beta, Vero

## O=c1ccn([C@@H]2S[C@H](CO)[C@@H](O)[C@H]2O)c(=O)[nH]1 [Compound 8, 1-((2R,3R,4S,5R)-3,4-dihydroxy-5-(hydroxymethyl)tetrahydrothiophen-2-yl)pyrimidine-2,4(1H,3H)-dione]
SARS-CoV-2 variant Delta; Severe acute respiratory syndrome coronavirus 2, Calu-3, read-out: Antiviral Activity Against SARS-CoV-2 Variants in Calu3 EC50, Delta
  EC50: 1800 nM
SARS-CoV-2 variant Delta; Severe acute respiratory syndrome coronavirus 2, Calu-3, read-out: Antiviral Activity Against SARS-CoV-2 Variants in Calu3 EC90, Delta
  EC90: 3600 nM
SARS-CoV-2 variant Alpha [1]; [11]
  EC50: 300 nM
  EC90: 1400 nM
[2]; [11]
  EC50: 200 nM
  EC90: 400 nM
SARS-CoV-2 variant Alpha [3]; Severe acute respiratory syndrome coronavirus 2, Calu-3, read-out: Antiviral Activity Against SARS-CoV-2 Variants in Calu3 EC50, Alpha
  EC50: 300 nM
[4]; [11]
  EC50: 800 nM
[5]; Severe acute respiratory syndrome coronavirus 2, Calu-3, read-out: Antiviral Activity Against SARS-CoV-2 Variants in Calu3 EC50, Lineage A (Wa)
  EC50: 100 nM
[5]; Severe acute respiratory syndrome coronavirus 2, Calu-3, read-out: Antiviral Activity Against SARS-CoV-2 Variants in Calu3 EC90, Lineage A (Wa)
  EC90: 400 nM
SARS-CoV-2 variant Beta [6]
  EC50: 1100 nM
[7]; Severe acute respiratory syndrome coronavirus 2, Calu-3, read-out: Antiviral Activity Against SARS-CoV-2 Variants in Calu3 EC90, Lineage A (Eng)
  EC90: 4500 nM
SARS-CoV-2 variant Gamma [8]; [11]
  EC50: 200 nM
  EC90: 300 nM
SARS-CoV-2 variant Gamma [9]; Severe acute respiratory syndrome coronavirus 2, Calu-3, read-out: Antiviral Activity Against SARS-CoV-2 Variants in Calu3 EC50, Gamma
  EC50: 40 nM
SARS-CoV-2 variant Gamma [9]; Severe acute respiratory syndrome coronavirus 2, Calu-3, read-out: Antiviral Activity Against SARS-CoV-2 Variants in Calu3 EC90, Gamma
  EC90: 100 nM
SARS-CoV-2 variant Beta [10]; [11]
  EC50: 800 nM
  EC90: 1000 nM

## CCC(CC)COC(=O)[C@H](C)N[P@](=O)(OC[C@H]1O[C@@](C#N)(c2ccc3c(N)ncnn23)[C@H](O)[C@@H]1O)Oc1ccccc1 [Remdesivir, reference compound]
SARS-CoV-2 variant Delta; Severe acute respiratory syndrome coronavirus 2, Calu-3, Delta, Calu3, read-out: Antiviral Activity Against SARS-CoV-2 Variants in Calu3 EC50, Delta
  EC50: 300 nM
SARS-CoV-2 variant Delta; Severe acute respiratory syndrome coronavirus 2, Calu-3, Delta, Calu3, read-out: Antiviral Activity Against SARS-CoV-2 Variants in Calu3 EC90, Delta
  EC90: 2300 nM
SARS-CoV-2 variant Alpha [1]; [12]
  EC50: 400 nM
  EC90: 1600 nM
[2]; [13]
  EC50: 300 nM
  EC90: 2900 nM
SARS-CoV-2 variant Alpha [3]; Severe acute respiratory syndrome coronavirus 2, Calu-3, Alpha, Calu3, read-out: Antiviral Activity Against SARS-CoV-2 Variants in Calu3 EC50, Alpha
  EC50: 300 nM
SARS-CoV-2 variant Alpha [3]; Severe acute respiratory syndrome coronavirus 2, Calu-3, Alpha, Calu3, read-out: Antiviral Activity Against SARS-CoV-2 Variants in Calu3 EC90, Alpha
  EC90: 400 nM
[4]; Severe acute respiratory syndrome coronavirus 2, Lineage A (Wa), Vero
  EC50: 200 nM
[5]; Severe acute respiratory syndrome coronavirus 2, Calu-3, Lineage A (Wa), Calu3, read-out: Antiviral Activity Against SARS-CoV-2 Variants in Calu3 EC50, Lineage A (Wa)
  EC50: 100 nM
[5]; Severe acute respiratory syndrome coronavirus 2, Calu-3, Lineage A (Wa), Calu3, read-out: Antiviral Activity Against SARS-CoV-2 Variants in Calu3 EC90, Lineage A (Wa)
  EC90: 400 nM
[7]; Severe acute respiratory syndrome coronavirus 2, Calu-3, Lineage A (Eng), Calu3, read-out: Antiviral Activity Against SARS-CoV-2 Variants in Calu3 EC50, Lineage A (Eng)
  EC50: 20 nM
[7]; Severe acute respiratory syndrome coronavirus 2, Calu-3, Lineage A (Eng), Calu3, read-out: Antiviral Activity Against SARS-CoV-2 Variants in Calu3 EC90, Lineage A (Eng)
  EC90: 300 nM
SARS-CoV-2 variant Gamma [8]; [14]
  EC50: 300 nM
  EC90: 2100 nM
SARS-CoV-2 variant Gamma [9]; Severe acute respiratory syndrome coronavirus 2, Calu-3, Gamma, Calu3, read-out: Antiviral Activity Against SARS-CoV-2 Variants in Calu3 EC50, Gamma
  EC50: 260 nM
SARS-CoV-2 variant Gamma [9]; Severe acute respiratory syndrome coronavirus 2, Calu-3, Gamma, Calu3, read-out: Antiviral Activity Against SARS-CoV-2 Variants in Calu3 EC90, Gamma
  EC90: 300 nM
SARS-CoV-2 variant Beta [10]; [15]
  EC50: 1100 nM
  EC90: 2200 nM
